This is an account of results in patent publication US9408385B2, “Pesticidal composition comprising a pyridylethylbenzamide derivative and an insecticide compound” (priority 2006, dated 2016).

The subject of data set [1] is Phaedon cochleariae larvae. Put plainly: Efficacy against Phaedon cochleariae larvae, cabbage leaf dip test. Particulars: for mortality at 1 ppm: read-out: Mortality in % after 4d, dose 1 ppm.
Data set [2] concerns Myzus persicae. Put plainly: Efficacy against Myzus persicae, cabbage leaf dip test. It is filed as in vivo. The settings on record: foliar. The source says: (§1) Solvent: 7 parts by weight of dimethylformamide
Data set [3] has as its system Phytophthora cryptogea. Put plainly: Efficacy against Phytophthora cryptogea (Test in vitro - Microtest). The settings on record: dose 0.03 ppm; 4 days of incubation, optical density.
Description: The microtest was performed in liquid medium with potato-dextrose broth (PDB) using microtitre plates.
A mycelium suspension of Phytophthora cryptogea was used for inoculation. After 4 days of incubation by darkness under shaking (10 Hrz), the optical density in each cavity was evaluated with the aid of a microtitre plate reader.
The test system of data set [4] is Aphis gossypii. Nature of the data set: Efficacy against Aphis gossypii, cotton leaf dip test. It counts as in vivo. The settings on record: foliar, 24 h, after 1 d.
Description: as §1

Data set [5] deals with Gibberella zeae. It counts as cell-based. The settings on record: dose 3 ppm; 4 days of incubation, optical density.
The test system of data set [6] is Pyricularia oryzae. It counts as cell-based. Particulars: dose 0.015 ppm; 3 days of incubation.
[7] abbreviates: Phaedon cochleariae, in Brassica oleracea, foliar, 96 h, read-out: Mortality in % after 4d, dose 4 ppm, after 4 d.
Setting [8] is: Phaedon cochleariae, in Brassica oleracea, foliar, 144 h, read-out: Mortality in % after 6d, dose 4 ppm, after 6 d.
Setting [9] is: 24 h, after 1 d, read-out: Mortality in % after 1d.
The mark [10] stands for this setting: 144 h, after 6 d, read-out: Mortality in % after 6d.
Setting [11] is: Phaedon cochleariae, in Brassica oleracea, foliar, 96 h, after 4 d.
The mark [12] stands for this setting: Phaedon cochleariae, in Brassica oleracea, foliar, 144 h, read-out: Mortality in % after 6d, dose 200 ppm, after 6 d.

Several values for one entry are separate records, joined by “and”; a condition that tells them apart may be missing. Equal values may be shown once. Read-outs that look alike come from different tables or passages of the source.

Usually mortality stands for the share of the test organisms that died.

On to “5-fluoro-1,3-dimethyl-N-[2-(1,3-dimethyl)-but-2-ol-yl]-1H-pyrazole-4-carboxamide [Compound A]”, for which, in data set [1] (dose 200 ppm, after 4 d), the “Mortality in % after 4d” value is reported as 0%.

Regarding `CN/C(=N\[N+](=O)[O-])NCc1cnc(Cl)s1` [Clothianidin, clothianidin], the results for the mortality at 4 ppm in data set [1] (setting [7]) and in data set [1] (setting [8]) were 60% and 20%, respectively. In addition, the mortality at 0.8 ppm was 0% in data set [1] (Phaedon cochleariae, in Brassica oleracea, foliar, 144 h, read-out: Mortality in % after 6d, dose 0.8 ppm, after 6 d); 70% in data set [2] (setting [9]); 55% in data set [2] (setting [10]). Besides, in data set [1] (dose 4 ppm, after 6 d), the “Mortality in % after 6d” value is on record as 40%. The values for the mortality at 0.16 ppm in data set [2] (setting [9]) and in data set [2] (setting [10]) were 10% and 30%, respectively.

`O=C(NCCc1ncc(C(F)(F)F)cc1Cl)c1ccccc1C(F)(F)F` [Compound 1, N-{2-[3-chloro-5-(trifluoromethyl)-2-pyridinyl]ethyl}-2-trifluoromethylbenzamide]: the Efficacy in % is 13% in data set [3] and 41% in data set [5]. The mortality at 200 ppm was 10% in data set [4] (dose 200 ppm), 0% in data set [1] (setting [12]), 0% in data set [2] (setting [9]) and 0% in data set [2] (setting [10]). For the same compound, the mortality at 1 ppm in data set [1] (setting [11]) was determined as 0%. Moreover, the mortality at 0.2 ppm in data set [1] (Phaedon cochleariae, in Brassica oleracea, foliar, 144 h, read-out: Mortality in % after 6d, dose 0.2 ppm, after 6 d) stood at 0%. Further, the “Mortality in % after 4d” value in data set [1] (dose 200 ppm, after 4 d) is 5% and 15%. Also, the mortality at 20 ppm in data set [2] (24 h, dose 20 ppm, after 1 d) amounted to 0%.

In the case of `Nc1nc(N)nc(NC2CC2)n1` [Cyromazine, cyromazine], in data set [1] (Phaedon cochleariae, in Brassica oleracea, foliar, 144 h, read-out: Mortality in % after 6d, dose 20 ppm, after 6 d), the mortality at 20 ppm turned out to be 5%.

On to `CCOP(=O)(NC(C)C)Oc1ccc(SC)c(C)c1` (stereo not shown) [Fenamifos, fenamifos], for which the “Mortality in % after 6d” value in data set [1] (dose 20 ppm, after 6 d) came out at 75%.

For `N#Cc1nn(-c2c(Cl)cc(C(F)(F)F)cc2Cl)c(N)c1[S+]([O-])C(F)(F)F` (stereo not shown) [Fipronil, fipronil], in data set [4] (dose 100 ppm), the mortality at 100 ppm worked out at 40%.

As to `N#Cc1c[nH]cc1-c1cccc2c1OC(F)(F)O2` [Fludioxonil, fludioxonil], the mortality at 200 ppm was found to be 5% in data set [1] (setting [12]) and 0% in data set [2] (setting [9]).

On to `O=[N+]([O-])NC1=NCCN1Cc1ccc(Cl)nc1` [Imidacloprid, imidacloprid], for which the mortality at 4 ppm in data set [1] (setting [7]) was found to be 35%. Also, the Efficacy in % in data set [5] worked out at 22%. For the same compound, the mortality at 0.16 ppm in data set [2] (setting [9]) turned out to be 30%.

On to `CC(C)C1CCC(Cc2ccc(Cl)cc2)C1(O)Cn1cncn1` (stereo not shown) [Ipconazole, ipconazole], for which, in data set [2] (setting [9]), the mortality at 200 ppm worked out at 0%.

For the compound `OC(Cc1ccccc1Cl)(Cn1nc[nH]c1=S)C1(Cl)CC1` (stereo not shown) [Prothioconazole, prothioconazole], the mortality at 1 ppm in data set [1] (setting [11]) came to 0%. Moreover, the mortality at 200 ppm in data set [1] (Phaedon cochleariae, in Brassica oleracea, foliar, 96 h, read-out: Mortality in % after 4d, dose 200 ppm, after 4 d) was 0%; in data set [2] (setting [10]) it was 0%. Also, the Efficacy in % in data set [6] is reported as 12%.

For the compound `CC1=NNC(=O)N(/N=C/c2cccnc2)C1` [Pymetrozine, pymetrozine], the mortality at 0.8 ppm in data set [2] (setting [9]) was 30%.

For `CC(C)(C)C(O)(CCc1ccc(Cl)cc1)Cn1cncn1` (stereo not shown) [Tebuconazole, tebuconazole], the mortality at 200 ppm in data set [2] (setting [10]) was 0%.

Take `N#C/N=C1\SCCN1Cc1ccc(Cl)nc1` [Thiacloprid, thiacloprid]: the mortality at 4 ppm in data set [1] (setting [8]) was determined as 25%.

With `CC(C)(C)C(O)C(Oc1ccc(Cl)cc1)n1cncn1` (stereo not shown) [Triadimenol, triadimenol], the mortality at 0.4 ppm in data set [1] (Phaedon cochleariae, in Brassica oleracea, foliar, 144 h, read-out: Mortality in % after 6d, dose 0.4 ppm, after 6 d) came out at 0%. Moreover, the mortality at 200 ppm in data set [2] (setting [9]) was found to be 10%.

Consider `CON=C(C(=O)OC)c1ccccc1CON=C(C)c1cccc(C(F)(F)F)c1` [Trifloxystrobin, trifloxystrobin], for which the mortality at 200 ppm in data set [2] (setting [10]) was 20%.

In turn, spinosad showed an Efficacy in % in data set [3] of 5%. In data set [1] (dose 0.8 ppm, after 4 d), the “Mortality in % after 4d” value was found to be 50%.
